Data as given in patent US20230331601A1, “METHOD FOR WATER PURIFICATION AND SANITIZATION” (YISSUM RESEARCH DEVELOPMENT COMPANY OF THE HEBREW …, priority 2020, published 2023).
Values belong to the compound of their own block, whether it stands above or below them.

Columns and labels:
Format in all cases: physicochemical
[1] = Decolorization of Rhodamine B solution monitored with UV-Vis spectroscopy; conditions: 125 ppm RhB solution (Example 2 conditions)
From the text: UV-Vis spectroscopy: 1800 UV spectrophotometer, Shimadzu, Japan.
Rhodamine B (RhB) is a water-soluble chemical dye which is commonly used as a benchmark to assess the potency of oxidants to decompose organic pollutants in aqueous solution and measure the rate of degradation. De-colorization of RhB solution, that is, the disappearance of the characteristic intense pink color, is readily visible as the decomposition of the dye advances under the action of the tested oxidant and the oxidation reaction can be monitored with UV-Vis spectroscopy. […] Decolorization of 1000 ppm and 125 ppm RhB solutions was completed within eleven minutes and two minutes, respectively, i.e., well before the end of the experiments.

[2] = Degradation of carbamazepine by sodium hydroxide and hydrogen peroxide with phase transfer catalyst and added oxygen (LC-MS)
Experimental: A 50 ml round bottom flask equipped with a magnetic stirrer was charged with 10 ml of water polluted with 1-100 ppm of carbamazepine (concentrations of 1, 10 and 100 ppm were examined). Sodium hydroxide (0.5 g) was rapidly added followed by addition of 0.02 ml of a phase transfer catalyst (Aliquat 336) Next, 1 ml of aqueous hydrogen peroxide (30% solution) was introduced over 5 minutes. After the addition of hydrogen peroxide, the mixture was held under stirring and pure oxygen was bubbled to the system at a flow rate of 0.5 ml/min over 10 minutes. For each experiment, at the end of the process the final reaction mixture was extracted with 5 ml of Acetone: hexane solution (1:1) and carbamazepine remnant concentration was measured by LC-MS, QTOF 6520, manufactured by Agilent.

[3] = Degradation of xylene by sodium hydroxide and hydrogen peroxide with Aliquat 336, with and without added oxygen (GC-FID)
Experimental: Experiment A: In the reference experiment, a 50 ml round bottom flask equipped with a magnetic stirrer was charged with 10 ml of water polluted with 100 ppm of xylene. Sodium hydroxide (0.5 g) was rapidly added followed by addition of 0.02 ml of a phase transfer catalyst (Aliquat 336) Next, 1 ml of aqueous hydrogen peroxide (30% solution) was introduced over 5 minutes. After the addition of hydrogen peroxide solution has been completed, the mixture was held under stirring for ten minutes.
Experiment B: To assess the effect of added oxygen, the procedure set forth above was repeated but after the addition of hydrogen peroxide, pure oxygen was bubbled to the system at a flow rate of 1 ml/min over 30 minutes. Upon completion of O2 addition, the mixture was stirred for ten minutes.
For each experiment, samples (0.5 ml) were taken from the reaction mixture at intervals of one minute during the ten minutes hold time and the concentration of remnant xylene was measured by GC-FID. The final reaction mixture was extracted with dichloromethane (10 ml) and analyzed by GC-FID as previously described.

Time to complete decolorization [1]: two
Compound: CCN(CC)c1ccc2c(-c3ccccc3C(=O)O)c3ccc(=[N+](CC)CC)cc-3oc2c1.[Cl-] [Rhodamine B]

conversion rate ([2]; 1 ppm carbamazepine in water): ~ 70%
conversion ([2]; 10 ppm carbamazepine in water): > 90%
conversion ([2]; 100 ppm carbamazepine in water): > 90%
removal rates ([2]; low pollution level of 1 to 10 ppm): 70 to 90%
Compound: NC(=O)N1c2ccccc2C=Cc2ccccc21 [carbamazepine]

Compound: Xylene
Hold time to reach complete oxidation of the pollutant ([3]; Experiment A: 100 ppm xylene, absence of added oxygen): ten
Hold time to reach complete oxidation of the pollutant ([3]; Experiment B: 100 ppm xylene, with added oxygen 1 ml/min over 30 minutes): about six
